In patent publication US20050148763A1, “Peg-binding pth or peg-binding pth derivative” (Chugai Seiyaku Kabushiki Kaisha, priority 2002, published 2005):

Assays:
human PTH1 receptors = biological target: T1, human PTH1 receptors (Homo sapiens, UniProt Q03431); assay: in vitro ability to produce cAMP, HKRK-B64 cells; assay type: cell-based; conditions: Table 2(2), n=2-3
T1 construct: expressed in transfected cells; host or cells: HKRK-B7 and HKRK-B64 cells (derived from pig kidney LLC-PK1 cells)
T1 sequence (Q03431 27-593): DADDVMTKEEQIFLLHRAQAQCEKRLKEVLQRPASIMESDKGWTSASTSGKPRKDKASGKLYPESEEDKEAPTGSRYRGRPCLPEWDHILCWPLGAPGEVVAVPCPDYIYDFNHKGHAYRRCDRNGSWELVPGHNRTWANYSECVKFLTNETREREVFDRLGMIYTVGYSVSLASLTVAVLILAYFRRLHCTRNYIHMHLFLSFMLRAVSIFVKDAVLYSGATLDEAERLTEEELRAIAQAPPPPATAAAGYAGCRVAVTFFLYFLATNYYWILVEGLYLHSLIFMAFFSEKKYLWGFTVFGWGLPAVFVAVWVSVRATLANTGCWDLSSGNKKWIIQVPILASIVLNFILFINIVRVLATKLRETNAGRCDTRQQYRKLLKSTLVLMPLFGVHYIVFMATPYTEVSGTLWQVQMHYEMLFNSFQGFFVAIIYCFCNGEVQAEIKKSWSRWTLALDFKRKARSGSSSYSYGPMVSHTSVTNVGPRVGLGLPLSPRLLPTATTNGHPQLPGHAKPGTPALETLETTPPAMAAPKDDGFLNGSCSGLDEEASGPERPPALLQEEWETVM
Experimental: Each PEG-PTH sample was assayed for its ability to produce cAMP (indicative of the increasing effect of PTH on bone mass) as follows. HKRK-B7 and HKRK-B64 cells, genetically modified from pig kidney-derived LLC-PK1 cells to overexpress human PTH1 receptors at levels of about 1×10^6 and 9×10^4 receptors per cell, respectively, as well as EW29 cells expressing about 1.9×10^5 rat PTH1 receptors per cell (Takasu et al., J. Bone. Miner. Res. 14: 11-20, 1999) were grown in DMEM supplemented with 10% FBS, 1% penicillin and 1% streptomycin. These cells were seeded in 96-well plates at 1×10^5 cells/well and incubated overnight. On the following day, the cells were washed once with 200 μL binding buffer (50 mM Tris-HCl/100 mM NaCl/5 mM KCl/2 mM CaCl2/5% inactivated horse serum/0.5% inactivated bovine serum, pH 7.7), followed by addition of 100 μL cAMP assay buffer (DMEM/2 mM 3-isobutyl-1-methylxanthine/1 mg/mL bovine serum albumin/35 mM HEPES-NaOH, pH 7.4) on ice. […] After removing the reaction solution, the plates were placed on powdered dry ice to freeze the cells and then removed from the dry ice. The cells were thawed with 50 μL of 50 mM HCl and frozen again on dry ice. The level of intracellular cAMP was determined with a commercially available EIA kit (Biotrak cAMP EIA system, Amersham).

[1] = Pharmacokinetics in rats by intravenous route; assay type: in vivo; conditions: rat, in vivo, 80 μg/mL at 1 mL/kg
Experimental: (§1) Each sample was adjusted to 80 μg/mL by dilution with 25 mmol/L citrate-phosphate buffer (pH 5.0) containing 100 mmol/L NaCl and 0.05 vol % Tween 20 to give a solution for administration. Male SD rats at 6 weeks of age (CLEA Japan, Inc.) were provided for this experiment. Intravenous injection was performed on rats having polyethylene tubes (SP-31, Natsume Seisakusho Co., Ltd.) inserted into the femoral artery and vein. The solutions thus prepared were each administered at a dose of 1 mL/kg through a polyethylene tube inserted into the femoral vein, and blood was collected through a polyethylene tube inserted into the femoral artery before administration and at 5, 15, 30 and 45 minutes as well as 1, 2, 4, 6, 8 and 24 hours after administration. Subcutaneous administration was performed on rats having polyethylene tubes inserted into the femoral artery. The solutions prepared above were each subcutaneously administered at a dose of 1 mL/kg to the dorsal neck region of the rats, and blood was collected in the same manner as used for intravenous injection. These blood samples were centrifuged to collect plasma and stored at −40° C. until assayed for PTH(1-34) or PEG-PTH(1-34) levels.
(§2) The level of PTH(1-34) or PEG-PTH(1-34) was determined by RIA analysis using a Rat PTH IRMA Kit (Immutopics). A Cobra Quantum Model 5005 gamma counter (Packard) was used to measure radioactivity for each sample. The plasma level of PTH(1-34) or PEG-PTH(1-34) was calculated from a calibration curve prepared using PTH(1-34) or PEG-PTH(1-34). The Winnonlin program Ver. 2.1 (Scientific Consulting Inc.) was used to analyze the time course of changes in the calculated plasma PTH(1-34) or PEG-PTH(1-34) levels (FIG. 3: by intravenous route; FIG. 4: by subcutaneous route) to calculate the following as pharmacokinetic parameters: time required to reach the maximum plasma level (Tmax); maximum plasma level (Cmax); area under the curve of plasma levels (AUC); plasma half-life (t1/2); total body clearance (Cltotal); mean residence time in the body (MRT); and bioavailability (BA). […]

[2] = Pharmacokinetics and bioavailability in rats by subcutaneous route; assay type: in vivo
Experimental: as §1, §2

[3] = clinical, single subcutaneous 20-40 μg, at 4 to 6 hours after administration; cited from earlier work

Row | Maximum cAMP response (human PTH1 receptors) [pmol/well] | EC50 (human PTH1 receptors; cAMP production) [nM] | AUC ([1]; read-out: AUC) [ng·h/mL] | clearance ([1]; read-out: Cltotal (converted)) [mL/min/kg] | MRT ([1]; read-out: MRT) [min] | half-life ([1]; read-out: t½ (converted)) [min] | bioavailability ([2]; male, SD, rat, plasma, sc, 80 μg/kg, subcutaneous route, read-out: BA) [%] | Cmax ([2]; rat, in vivo, sc, subcutaneous, 80 μg/mL at 1 mL/kg) [ng/mL] | AUC ([2]; rat, in vivo, sc, subcutaneous, 80 μg/mL at 1 mL/kg, read-out: AUC) [ng·h/mL] | MRT ([2]; rat, in vivo, sc, subcutaneous, 80 μg/mL at 1 mL/kg, read-out: MRT) [min] | Tmax ([2]; rat, in vivo, sc, subcutaneous, 80 μg/mL at 1 mL/kg, read-out: Tmax) [min] | half-life ([2]; rat, in vivo, sc, subcutaneous, 80 μg/mL at 1 mL/kg, read-out: t ½ (converted)) [min] | BA ([2]; subcutaneous route) | Compound | blood calcium levels (in words) [3]
1 | 65.4 ± 19.4 | 0.6 | – | – | – | – | – | – | – | – | – | – | – | 2 k PEG-[Cys^35]-hPTH(1-35): [Cys^35]-PTH(1-35) conjugated with mPEG 2 k-MAL (2 kDa methoxy-PEG-maleimide) at the C-terminal cysteine (SVSEIQLMHNLGKHLNSMERVEWLRKKLQDVHNFC; Parathyroid hormone 2 kDa mPEG-maleimide at Cys35; UniProt P01270 32-66, looked up, variant V35C) | –
2 | – | – | 21.7 | 61.7 | 12.7 | 13.9 | 13.6 | 5.55 | 2.94 | 32.8 | 11.6 | 20.9 | about 13.6% | CC[C@H](C)[C@H](NC(=O)[C@H](CCC(=O)O)NC(=O)[C@H](CO)NC(=O)[C@@H](NC(=O)[C@@H](N)CO)C(C)C)C(=O)N[C@@H](CCC(N)=O)C(=O)N[C@@H](CC(C)C)C(=O)N[C@@H](CCSC)C(=O)N[C@@H](Cc1cnc[nH]1)C(=O)N[C@@H](CC(N)=O)C(=O)N[C@@H](CC(C)C)C(=O)NCC(=O)N[C@@H](CCCCN)C(=O)N[C@@H](Cc1cnc[nH]1)C(=O)N[C@@H](CC(C)C)C(=O)N[C@@H](CC(N)=O)C(=O)N[C@@H](CO)C(=O)N[C@@H](CCSC)C(=O)N[C@@H](CCC(=O)O)C(=O)N[C@@H](CCCN=C(N)N)C(=O)N[C@H](C(=O)N[C@@H](CCC(=O)O)C(=O)N[C@@H](Cc1c[nH]c2ccccc12)C(=O)N[C@@H](CC(C)C)C(=O)N[C@@H](CCCN=C(N)N)C(=O)N[C@@H](CCCCN)C(=O)N[C@@H](CCCCN)C(=O)N[C@@H](CC(C)C)C(=O)N[C@@H](CCC(N)=O)C(=O)N[C@@H](CC(=O)O)C(=O)N[C@H](C(=O)N[C@@H](Cc1cnc[nH]1)C(=O)N[C@@H](CC(N)=O)C(=O)N[C@@H](Cc1ccccc1)C(=O)O)C(C)C)C(C)C [hPTH(1-34), reference compound] | transient elevation of blood calcium levels
